The results in this text go back to PubChem BioAssay AID1996.

≈ marks a conversion by molar mass, not a printed value. A value given as a limit tells only on which side of the number the result lay.

The conditions of the data set: buffer; pH 7.4; 200.0 µM.
With `CCN(c1ccccc1)S(=O)(=O)c1ccc(N2CCN(c3ccc(OC)cc3)CC2)nc1`, the solubility (kinetic) is 1.2 µg/mL (≈ 2.65 µM). Take `CC(NC(=O)c1ccncc1)c1ccc(Br)cc1` (configuration not stated): the kinetic solubility is over 45.8 µg/mL. The same measure for `O=C(Cc1cccc2ccccc12)Nc1ccccc1`: 1.9 µg/mL (≈ 7.27 µM); for `CC(C)N1C(=O)CCC1C(=O)NCc1cccs1` (configuration not stated): over 40 µg/mL; for `CC(=O)N[C@@H](CC(=O)O)C(=O)O`: over 26.3 µg/mL.

As to `CCC(C(=O)Nc1cc(Cl)c(OC)cc1OC)c1ccccc1` (configuration not stated), the solubility (kinetic) was under 0.7 µg/mL.

With `O=C(/C=C/Nc1ccc(S(=O)(=O)Nc2ncccn2)cc1)c1cccs1`, the kinetic solubility was 6.7 µg/mL (≈ 17.3 µM). Consider `COC(=O)c1sc(NC(=O)COc2c(C)cccc2C)nc1C`, for which the kinetic solubility was 0.4 µg/mL (≈ 1.2 µM). This solubility kinetic lies about 17-fold lower than the previous one. The same measure for `CC1(C)NC(=O)N(CCOc2ccc([N+](=O)[O-])cc2)C1=O`: over 44 µg/mL; for `O=C(CC(=O)c1ccccc1)Nc1cc([N+](=O)[O-])ccc1Cl`: 0.6 µg/mL (≈ 1.88 µM); for `Cc1ccc(C)c(NC(=O)c2nc(Cl)ccc2Cl)c1`: 3.2 µg/mL (≈ 10.8 µM). In turn, `CC12COC3(C(=O)Nc4ccccc4)CC1CCC32C` (configuration not stated) displayed a solubility (kinetic) of over 40.7 µg/mL. `O=C(CCn1ccnc1)Nc1cc(Cl)ccc1O` returned a kinetic solubility of over 39.9 µg/mL. As for `O=C(COC(=O)Cc1ccc(F)cc1)NC1CCCC1`, the figure is over 41.9 µg/mL. As for `O=C1CCCCCN1CP(=O)(O)CN1CCCCCC1=O`, the figure is 46.1 µg/mL (≈ 146 µM).

`Cc1ccc(-c2csc3ncn(CC(N)=O)c(=O)c23)cc1C` gave a kinetic solubility of over 47 µg/mL. The same measure for `Cc1[nH]c2ccc(C(=O)N3CCCCC3)cc2c1C`: over 38.5 µg/mL; for `O=C(Nc1cccc(F)c1)C1CCCN(c2cnccn2)C1` (configuration not stated): over 45.1 µg/mL. `CCOC(=O)c1ccc(NC(=S)NCc2cccnc2)cc1` registered a solubility (kinetic) of over 47.3 µg/mL.

Compound `C=COCCCNc1ncnc2sc(-c3ccccc3)cc12` displayed a kinetic solubility of 1.4 µg/mL (≈ 4.5 µM).

In the case of `COc1ccc(NC(=O)CCNC(=O)c2ccco2)cc1OC`, the solubility (kinetic) turned out to be 47.3 µg/mL (≈ 149 µM).

`O=C(c1cc([N+](=O)[O-])ccc1N1CCCC1)N1CCCC1` registered a solubility (kinetic) of over 43.4 µg/mL. The same measure for `O=C(NCc1ccco1)c1ccc(S(=O)(=O)N2CCCCC2)cc1`: 1.9 µg/mL (≈ 5.45 µM); for `N#C/C(=C\c1ccccc1Br)C(=O)NC1CC1`: over 43.7 µg/mL; for `Cc1cc(C)cc(NC(=O)CN2CCC(C(=O)c3ccccc3)CC2)c1`: 16.5 µg/mL (≈ 47.1 µM). As for `Cc1ccc(Nc2nc(-c3cccs3)cs2)nc1`, the figure is 0.8 µg/mL (≈ 2.93 µM).

The compound `O=C(CS(=O)(=O)c1ccccc1)Nc1ccccn1` yielded a solubility (kinetic) of over 41.4 µg/mL. Compound `COc1ccc(-n2c(C)nc3sc4c(c3c2=O)CCCC4)cc1` yielded a solubility (kinetic) of 6.4 µg/mL (≈ 19.6 µM).

Compound `O=C(Nc1cccc2cccnc12)c1ccc(Br)cc1Br` returned a solubility (kinetic) of under 0.4 µg/mL. On to `O=C(Nc1cccc(NC(=O)c2ccccc2[N+](=O)[O-])c1)c1ccccc1Cl`, for which the solubility (kinetic) was found to be 1.3 µg/mL (≈ 3.28 µM). The same measure for `COc1cc(CNCCc2ccc3c(c2)OCO3)ccc1O.Cl`: over 50.7 µg/mL; for `CCOC(=O)C(=CNc1cc(OC)ccc1-n1cccc1)C(=O)OCC`: 1 µg/mL (≈ 2.79 µM); for `O=C(CSc1ccc2ccccc2n1)NC1CC1`: 38 µg/mL (≈ 147 µM).

The compound `CS(=O)(=O)N1CCC(CO)(Cc2ccccc2C(F)(F)F)CC1` showed a kinetic solubility of 48.7 µg/mL (≈ 139 µM). Take `CC(=O)c1cccc(Nc2nc(-c3cccnc3)cs2)c1`: the solubility (kinetic) stood at 0.9 µg/mL (≈ 3.05 µM). The compound `CCOc1ccccc1Nc1nnc(SCC(=O)NCC2CCCO2)s1` (configuration not stated) registered a kinetic solubility of over 59.2 µg/mL. The compound `CC(NC(=S)N1CCN(c2ccccc2)CC1)c1ccccc1` (configuration not stated) had a solubility (kinetic) of 0.4 µg/mL (≈ 1.23 µM).

`COC(=O)C1CCN(C(=O)c2cc(-c3ccco3)nc3ccccc23)CC1`: the solubility (kinetic) is over 54.7 µg/mL.

Compound `CC1(C)Oc2ccc(C(=O)NC3CCCCC3)cc2N(CC#N)C1=O` gave a kinetic solubility of 12.9 µg/mL (≈ 37.8 µM).

On to `COc1ccc2oc(C(=O)OCC(=O)NC(=O)c3ccccc3)c(C)c2c1`, for which the kinetic solubility is 4.5 µg/mL (≈ 12.2 µM).

In the case of `O=C1NC2(CCCCC2)C(=O)N1CC(=O)N1CCc2ccccc21`, the kinetic solubility is 10.6 µg/mL (≈ 32.4 µM). The same measure for `CCc1cccc(CC)c1NC(=O)CSc1nnc(C2CC2)n1C`: over 51.7 µg/mL; for `COc1ccc(NC(=S)N(C)CC2COc3ccccc3O2)cc1` (configuration not stated): 2.6 µg/mL (≈ 7.55 µM); for `COCCn1c(C)cc(C(=O)COC(=O)CNC(=O)c2ccco2)c1C`: 45.2 µg/mL (≈ 125 µM).

Take `CN(C)c1nc(-c2cccnc2)nc(-c2ccccc2)c1C#N`: the solubility (kinetic) turned out to be 0.6 µg/mL (≈ 1.99 µM).

`Cc1cc(C)n(Cc2cc(C(=O)O)c3ccccc3n2)n1` gave a solubility (kinetic) of over 42.2 µg/mL. In turn, `CC(CCc1ccccc1)NCC(O)c1cccc([N+](=O)[O-])c1.Cl` (configuration not stated) showed a kinetic solubility of over 52.6 µg/mL. As for `O=S(=O)(Nc1nc2ccccc2s1)c1ccc(Cl)nc1`, the solubility (kinetic) is over 48.9 µg/mL.

Compound `CCC(C)C(=O)Nc1ccccc1N1CCN(c2ccc(F)cc2)CC1` (configuration not stated) registered a solubility (kinetic) of 2.9 µg/mL (≈ 8.16 µM).

The compound `N#Cc1ccc(OCC(=O)NCCN2CCOCC2)cc1` yielded a kinetic solubility of over 43.4 µg/mL.

For `O=C(O)c1ncsc1-c1ccccc1`, the kinetic solubility is 29.1 µg/mL (≈ 142 µM).

`COc1ccc2c(c1)c1ncn(CC3CCCO3)c(=O)c1n2C` (configuration not stated): the kinetic solubility amounted to 38.6 µg/mL (≈ 123 µM).
